Measurements taken from patent publication US9315816B2, “Method for rapidly developing gene switches and gene circuits” (National University Corporation Chiba University, priority 2010, dated 2016).

How the values were obtained:
[1] = tested on: TK-deficient E. coli strain in which hsvTK was expressed (hsvTK+); experiment: ON selection: 5FdU concentration vs viable cell count, hsvTK+; format: cell-based, Escherichia coli
Procedure: With the TK-deficient strain of E. coli JW1226, a human herpes virus derived thymidine kinase (hsvTK) was expressed by transfecting pTrc-hsvtk (FIG. 3), and a relationship between the concentration of 5FdU and the survival rate of cells (viable cell count) was investigated.
First, JW1226 cells transfected with pTrc-hsvtk were diluted with 1 mL of positive selection medium so as to achieve an OD600 of 0.002 (approximately 10^6 cells/mL), and cultured at 37° C. for 12 hours while being rotated at 200 rpm. The positive selection medium used was medium containing tryptone at 2% w/v, NaCl at 0.5% w/v, dT at 10 μg/mL, adenosine at 1 μg/mL, and 5FdU at 0 to 25 μg/mL. After the culture, a portion of the resultant culture was collected and inoculated in an LB plate containing ampicillin, and the number of colonies grown was counted as a viable cell count.

[2] = tested on: TK-deficient E. coli strain in which hsvTK was not expressed (hsvTK−); experiment: ON selection: 5FdU concentration vs viable cell count, hsvTK−; format: cell-based, Escherichia coli; details: 5FdU 0 to 25 μg/mL, 12 hours
[3] = tested on: E. coli MV2157 transfected with selector plasmid Ver. 2 and Circuit-C or Circuit-D; experiment: ON selection of genetic circuit with selector plasmid Ver. 2 under MMS; format: cell-based, Escherichia coli
Procedure: First, E. coli MV2157 transfected with selector plasmid Ver. 2 and Circuit-C (referred to as “ON strain” in Example 3), and E. coli MV2157 transfected with selector plasmid Ver. 2 and […] (referred to as “OFF strain” in Example 3) were prepared. […] The cell density at the time of the MMS treatment is approximately 10^8 cells/mL. […] A value obtained by dividing the viable cell count of the sample to which MMS had been added by the viable cell count of the sample to which MMS had not been added was defined as a survival rate.
Next, time-dependent changes in the survival rates of the ON strain and the OFF strain when MMS was added at 0.2% were investigated. In this case, an ON strain transfected with pTrc-ape1 was prepared and similarly studied for comparison. Culture and treatment with MMS of each strain of E. coli were conducted by similar methods to the methods in the foregoing.

[4] = tested on: E. coli MV2157 switch strains with selector plasmid Ver. 2; experiment: Enrichment efficiency by dual selection, Circuit-B:C:D = 1:100:100; format: cell-based, Escherichia coli; details: 0.4% MMS, 30 minutes, approximately 10^6 cells/mL
Procedure: Next, enrichment efficiency by dual selection was evaluated. Selector plasmid Ver. 2 (FIG. 13-B) was used as a selector plasmid, and the following three kinds of model genetic circuits were used: Circuit-B; Circuit-C; and Circuit-D (see FIGS. 2-B, 2-C, and 2-D). The selector plasmid and one kind of model genetic circuit were transfected into E. coli MV2157. Each switch strain was inoculated in 2 mL of LB medium containing AHL, and cultured at 37° C. for 12 hours. Next, the switch strains having Circuit-B, Circuit-C, or Circuit-D were mixed at an abundance ratio of 1:100:100 in terms of OD. The mixed cell population was subjected to OFF selection by the same method as above, and then cultured at 37° C. for 2 hours. The cells were harvested by centrifugation, the medium was exchanged for M9 minimal medium, MMS was added at a concentration of 0.2%, 0.3%, or 0.4%, and the whole was left to stand still at 37° C. for 30 minutes (ON selection). After that, the medium was exchanged for LB medium, culture was conducted for 12 hours, and plasmids were extracted from the culture solution. The plasmids were transformed together with pλ-gfp into XL10-GOLD™ ultracompetent cells (Agilent Technologies). After that, the transformed cells were inoculated in solid media supplemented and not supplemented with AHL, and the numbers of cells expressing GFP were compared. […]

[5] = tested on: alkylating agent-sensitive E. coli strain MV2157; experiment: ON-selector function of AAG gene: survival rate under MMS; format: cell-based, Escherichia coli
Procedure: The ON-selector function of the AAG gene was studied. First, alkylating agent-sensitive E. coli strains MV2157 were separately transfected with plasmids containing AAG and variants thereof, specifically, pTrc-aag (WT), pTrc-aag (E125A), and pTrc-aag-ape1 prepared in Example 1, and were compared for their survival rates in the presence/absence of MMS. The E. coli strain transfected with pTrc-aag (E125A) was used as a negative control.
Next, 1 μL of culture was inoculated in LB liquid medium, and cultured at 37° C. for 3 hours. MMS was added at a final concentration of 0 to 40 mM, and culture was conducted at 37° C. for 15 to 60 minutes. […] A value obtained by dividing the viable cell count of the sample to which MMS had been added by the viable cell count of the sample to which MMS had not been added was defined as a survival rate.

E. coli cell population = details: 37 μM dP; cited from earlier work
[6] = tested on: TK-deficient E. coli strain transfected with a control plasmid pTrc99A (hsvTK−); experiment: OFF selection: dP concentration vs viable cell count, hsvTK− control; format: cell-based, Escherichia coli; details: dP 0 to 100 nM, 12 hours
[7] = tested on: TK-deficient E. coli strain JW1226 in which hsvTK was expressed (hsvTK+); experiment: OFF selection: dP concentration vs viable cell count, hsvTK+; format: cell-based, Escherichia coli; details: dP 0 to 100 nM, 12 hours
Procedure: With the TK-deficient E. coli strain JW1226, human herpes virus derived thymidine kinase (hsvTK) was expressed by transfecting pTrc-hsvtk (FIG. 3), and a relationship between the concentration of dP and the survival rate of cells (viable cell count) was investigated.
First, JW1226 cells transfected with pTrc-hsvtk were cultured in 2 mL of LB medium containing 100 μg/mL of ampicillin at 37° C. overnight. Next, the culture was diluted with 1 mL of fresh LB medium containing dP (at a final concentration of 0 to 100 nM) 1,000-fold (10^6 cells/mL), and stirred and shaken at 37° C. for 12 hours. After the culture, the cells were seeded on an LB-agar (1.5% w/v) plate containing ampicillin at 100 μg/mL. After incubation at 37° C. for 12 hours, the number of colonies grown was counted as a viable cell count.

[8] = tested on: TK-deficient cells transfected with pTrc-hsvtk constantly expressing hsvTK; experiment: Rapidity of OFF selection (dP shock); format: cell-based, Escherichia coli; details: dP 1 μM; 5, 30 or 60 minutes
Procedure: First, TK-deficient cells transfected with pTrc-hsvtk (FIG. 3) so as to constantly express hsvTK were cultured under shaking at 37° C. and 200 rpm until an OD of 0.05 (approximately 3×10^7 cells/mL) was achieved. The resultant was dispensed at 1 mL each, dP was added (final concentration: 1 μM), and culture was continued at 37° C. After a lapse of 5, 30, or 60 minutes, 20 μL of the culture (approximately 10^6 cells) were collected and inoculated in an LB plate containing ampicillin, and the number of colonies grown was counted as a viable cell count.

O=c1[nH]c(=O)n([C@H]2C[C@H](O)[C@@H](CO)O2)cc1F [5FdU, 5-fluoro-2′-deoxyuridine]
viable cell count ([1]; 5FdU 0 to 25 μg/mL, 12 hours, hsvTK+): decreased at a slow rate | survival rate of hsvTK+ as compared to hsvTK− ([1]; 5FdU 25 μg/mL): 4.8×10^7 fold | viable cell count [2]: decreased with increasing concentrations of 5FdU

CS(=O)(=O)O [MMS, methanesulfonic acid]
survival rate of OFF strain (AAG not expressed) ([3]; MMS 0.2-0.4%, 15 to 60 minutes): significantly decreased | survival rate of ON strain (AAG expressed) ([3]; MMS 0.2-0.4%, 15 to 60 minutes): only slightly reduced | difference in survival rate between the OFF strain and the ON strain ([3]; MMS 0.4%, 30 minutes): ≥ 10^4 fold | cell survival in ON selection [4]: all the cells were killed | survival rates of cells expressing AAG ([5]; MMS 20 mM, 60 minutes): significantly decreased | enrichment of cells expressing AAG ([5]; MMS treatment 15 to 60 minutes): ~1,000 fold | survival of all the strains ([5]; MMS ~40 mM): mostly died off

O=C1NC2=NOCCC2=CN1[C@H]1C[C@H](O)[C@@H](CO)O1 [dP, 6-(β-D-2-Deoxyribo-furanosyl)-3,4-dihydro-8H-pyrimido[4,5-c][1,2]oxazin-7-one]
fraction of E. coli cell population killed (E. coli cell population): 80% | survival rate [6]: no reduction in survival rate | viable cell count [7]: significantly decreased in a dP concentration-dependent manner | viable cell count after dP shock [8]: almost zero

pTrc-aag (WT): ON-selector plasmid containing a wild-type AAG gene
MMS resistance ([5]; 3-methyladenine repair enzyme-deficient strain): acquisition of MMS resistance has been confirmed
